Assay results published in patent publication US20250145693A1, “HERV-K ANTIBODY, CELL, VACCINE, AND DRUG THERAPEUTICS” (priority 2021, published 2025).

Assays:
[1] = system: HCT15, SW48 and HCT116 cells; test: HERV-K expression in CRC cell lines; type: cell-based
From the text: The expression of HERV-K was detected in several CRC cell lines and tissues, but not in benign colon tissues. […] The forced overexpression of HERV-K with these agents that induce expression of HERV-K by innate immune response (Poly I:C treatment) or LTR hypomethylation (5-Aza) would provoke the cancer cells to increase production of a target that would make them more susceptible to targeted therapy to include targeted immunotherapy.

breast cancer cell lines [2] = system: breast cancer cell lines
breast cancer cell lines [3] = test: expression of HERV-K and signaling proteins after H2O2 or paclitaxel; type: cell-based, human; settings: for expression of signaling proteins by immunoblot: paclitaxel (Tax, 0.1 μM) or H2O2 (5 μM or 10 μM), vs parent cells
[4] = system: MDA-MB-231, Hs578T, and MCF-7 breast cancer cells; test: proliferation and drug sensitivity of breast cancer cells after HERV-K KD; type: cell-based, human; settings: for sensitivity of breast cancer cells toward drug: MCF-7 and Hs578T stably transduced with shRNAenv vs shRNAc or parent cells
From the text: Here, the inventors further determined the effects of HERV-K env gene KD in breast cancer cells treated with breast cancer chemotherapy drugs.

[5] = system: MCF-7 and Hs578T breast cancer cell lines; test: cell cycle distribution by FACS; type: cell-based, human; settings: Hs578T cells, especially in the shRNAenv cells
[6] = system: MCF-7, HS578T, MDA-MB-231 cells; test: transwell migration and invasion; type: cell-based, human; parameters: dose or concentration left out as unconfirmed
Protocol: The effects of KD of HERV-K env on migration and invasion were investigated using transwell plates. After transwell plates (8 μm) were rehydrated for 2 hours, 2.5×10^4 cells were seeded into the transwell and cultured. The transwell was then removed and the cells that had migrated into the lower chamber were counted. For the invasion assay, transwells were coated with Matrigel, and cells remaining in the upper chamber were removed with a cotton swab. The invaded cells on the reverse side of the Matrigel were counted under a light microscope (40× magnification) after the cells were fixed with methanol and stained with Giemsa. Ten random fields were counted. The average number of invaded cells per field was presented as mean±SD (n=10 fields). Triplicate assays were performed for each experiment.

MDA-MB-231 cells = test: Live/dead cell viability assay; type: cell-based, human; settings: 10 μg/ml, sixteen hours
Protocol: Live/dead cell viability assays were used to assess induction of cell death after anti-HERV-K antibody treatment. MDA-MB-231 cells were seeded overnight in 24-well plates. Cells were treated with various antibodies (10 μg/ml) and incubated for sixteen hours at 37C in a cell culture incubator. Calcein Am (4 μl/10 ml media) and Eth-D1 (20 μl/10 ml media), 200 μl per well, were then added and cells were incubated for thirty minutes at room temperature. EthD-1 penetrates cells with membrane damage and binds to nucleic acids to produce red fluorescence in dead cells. Live cells (green color; Calcein Am) and putative dead cells (red color; EthD-1) were identified using the co-stained Live/Dead Viability Assay. Human IgG or mouse IgG were used control.

HERV-K env protein = test: antibody internalization; type: cell-based; settings: 37° C., 0, 5, 30, and 45 minutes; permeabilized cells
Protocol: To determine antibody internalization of humanized and murine antibodies, cells were incubated with HUM1 or m6H5 at 37° C. for different time intervals (0, 5, 30, and 45 minutes). At each time point, cells were fixed. Half of the cells were permeabilized and half were not permeabilized. Anti-human IgG 488 or anti-mouse IgG 488 was used to detect the percentages of antibody-bound HERV-K env protein that remained on the cell surface in the cells that were not permeabilized. A reduced surface expression of HERV-K positive cells was observed. The internalization of rate was determined in the cells that were permeabilized. The equation for the percentage of internalization at each point was 100−(% label at time 0).

[7] = system: HERV-K envelope surface fusion protein; test: ELISA binding to HERV-K envelope surface fusion protein; parameters: species or system human
From the text: An ELISA assay was used to compare antigen binding sensitivity and specificity of hu6H5 vs. m6H5.

[8] = system: ERVK6 and HERV-K envelope surface fusion protein; test: immunoblot on HERV-K Env surface proteins; type: binding, human
4T1pLVXKenv tumors = test: 4T1pLVXKenv combination treatment, Treg cells; type: in vivo, mouse; settings: pLVXKenv vs pLVX; 6H5 once, IL2 for five days
Protocol: BALB/c mice were inoculated with 3×10^5 4T1pLVXKenv or 4T1pLVX cells on day 0. These mice were then treated: FIG. 23B with CpG (1.24 nmol), HERV-K SU protein (10 μg, 20 μg, and 20 μg), or CpG+ HERV-K SU protein on days 6, 13, and 19. Tumor weights were compared at week 4 post tumor cell inoculation; (FIG. 23C) with Aza (0.5 mg/kg) daily for five days in two weekly cycles, anti-PD-1 (200 μg per mouse every four days; four treatments), or Aza+anti-PD-1. Mice treated with PBS were used as controls, and tumor weights were compared among groups; and (FIG. 23D) with anti-HERV-K antibody (6H5; once) and with IL2 (for five days).

## Nc1ncn([C@@H]2O[C@H](CO)[C@@H](O)[C@H]2O)c(=O)n1 [5-Azacytidine]
[1]
  expression of HERV-K: Increased expression of HERV-K

## OO [H2O2, Hydrogen Peroxide]
Breast cancer cell lines [2]; 5 μM, after 96 hours
  cell proliferation: Significantly increased cell proliferation
Breast cancer cell lines [2]; after 48 hours for MDA-MB-231 and after 72 hours for MCF-7
  migration: increased migration
Breast cancer cell lines [3]; 5 μM, HERV-K KD cells
  effect on shRNAenv-induced block in expression: reversed the shRNAenv-induced block in expression of HERV-K, HIF-1α, P-RSK, and P-ERK in a time-dependent manner
Breast cancer cell lines [3]; 25 μM and 50 μM
  expression at elevated concentrations: decreased expression of HERV-K and corresponding decreased HIF-1a and Ras/ERK signaling
Breast cancer cell lines [3]; 1-50 μM, three breast cancer cell lines
  protein expression at graded concentrations: enhanced expression of HERV-K, Ras, p-ERK, and HIF-1a proteins at H2O2 concentrations of 5 μM and 10 μM
Breast cancer cell lines [3]; 5 M, 0 hours to 48 hours, three breast cancer cell lines
  expression of HERV-K mRNA: elevated expression of HERV-K mRNA
Breast cancer cell lines [3]; 18 hours
  expression of HERV-K, p-MEK, and p-ERK by immunoblot: enhanced expression of HERV-K, p-MEK, and p-ERK
Breast cancer cell lines [3]; MDA-MB-231 cells
  expression of EMT markers: Increased expression of EMT markers including N-cadherin, vimentin, and Slug, and decreased expression of E-Cadherin
Breast cancer cell lines [3]
  expression of signaling proteins by immunoblot: increased expression of the breast cancer relevant signaling proteins HIF-1α, HERV-K, p-RSK, p-ERK, ERK, and Ras

## COc1cccc2c1C(=O)c1c(O)c3c(c(O)c1C2=O)C[C@@](O)(C(=O)CO)C[C@@H]3O[C@H]1C[C@H](N)[C@H](O)[C@H](C)O1 [doxorubicin]
[4]
  sensitivity of breast cancer cells toward drug: Enhanced sensitivity

## CC(=O)O[C@H]1C(=O)[C@@]2(C)[C@H]([C@H](OC(=O)c3ccccc3)[C@]3(O)C[C@H](OC(=O)[C@H](O)[C@@H](NC(=O)c4ccccc4)c4ccccc4)C(C)=C1C3(C)C)[C@]1(OC(C)=O)CO[C@@H]1C[C@@H]2O [paclitaxel]
[5]
  cell cycle arrest: G2 arrest
[4]
  sensitivity of breast cancer cells toward drug: Enhanced sensitivity
[4]; cells with HERV-K env KD by shRNAenv vs parent cells or shRNAc
  cell proliferation: Significantly reduced cell proliferation
[6]
  migration and invasion: Significantly reduced migration and invasion
Breast cancer cell lines [3]
  expression of signaling proteins by immunoblot: increased expression of the breast cancer relevant signaling proteins HIF-1α, HERV-K, p-RSK, p-ERK, ERK, and Ras

## Poly I:C
[1]
  expression of HERV-K: Increased expression of HERV-K

B1: m6H5: murine anti-HERV-K monoclonal antibody (antibody, V domains shown)
VH: QVKLQQSGPDLVKPGASVKISCKASGYSFTGYYMHWVKQSHGKSLEWIGRVNPNSGGTSYNQKFKDKAILTVDKSSSTAYMELRSLTSEDSAVYYCARSKGNYFYAMDYWGQGTTVTVSS
VL: DIELTQSPASLAVSLGQRATISCRASESVDSHGTSFMHWYQQKPGQPPKFLIYRASNLESGIPARFSGSGSRTDFTLTINPVETDDVAIYYCQQSNEDPPTFGGGTKLEIK
MDA-MB-231 cells
  dead cells (red fluorescence, EthD-1): red fluorescent cells were observed
HERV-K env protein
  internalized HERV-K positive cells: increased expression of internalized HERV-K positive cells
[7]
  binding detected by the inventors using ELISA or Western blot assays: readily detected
[8]
  binding by immunoblot to two HERV-K Env surface proteins: shown by immunoblot to bind
4T1pLVXKenv tumors
  T regulatory (Treg) cells: Significantly decreased T regulatory (Treg) cells
